Source: patent US11702404B2, “GLP-1R modulating compounds” (priority 2019, dated 2023)
pEC50: −log10 of the molar value. Like-named read-outs stand apart in the source and are kept apart here.

Assays:
[1] = biological target: GLP-1R (Homo sapiens, UniProt P43220); assay: GLP-1R activation: cAMP increase in CHO cells stably expressing GLP-1R; assay type: cell-based; conditions: read-out: EC50
[2] = Microsomal stability, human liver microsomes (predicted hepatic clearance); conditions: predicted from in vitro microsomal stability data
[3] = cAMP increase, CHO cells stably expressing GLP-1R, 10 point dose response, 30 minutes incubation

GLP-1R, sequence (P43220 24-463): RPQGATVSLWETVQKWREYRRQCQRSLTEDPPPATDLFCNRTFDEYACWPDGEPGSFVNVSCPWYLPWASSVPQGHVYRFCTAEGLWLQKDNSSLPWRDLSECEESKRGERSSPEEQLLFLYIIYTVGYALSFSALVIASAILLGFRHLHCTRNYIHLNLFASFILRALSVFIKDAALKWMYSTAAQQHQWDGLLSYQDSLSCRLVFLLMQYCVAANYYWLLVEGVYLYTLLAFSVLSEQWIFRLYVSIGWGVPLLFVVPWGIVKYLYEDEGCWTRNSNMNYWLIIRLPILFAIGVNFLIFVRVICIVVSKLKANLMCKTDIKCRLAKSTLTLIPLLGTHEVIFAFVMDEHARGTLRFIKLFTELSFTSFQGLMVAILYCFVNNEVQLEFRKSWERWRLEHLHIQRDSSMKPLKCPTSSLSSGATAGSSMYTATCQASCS

SMILES: COCCn1c(Cc2ccc(-c3cccc(OCc4ccc(C5(F)COC5)cc4)n3)cc2F)nc2ccc(C(=O)O)cc21 [Example 460, 2-(2-fluoro-4-(6-((4-(3-fluorooxetan-3-yl)benzyl)oxy)pyridin-2-yl)benzyl)-1-(2-methoxyethyl)-1H-benzo[d]imidazole-6-carboxylic acid]
- pEC50 [1, 3]: 7.81
- Predicted Hepatic Clearance (Pred. Cl.) [2]: 12.5 mL/min/kg

SMILES: N#Cc1ccc(COc2cccc(-c3ccc(Cc4nc5ccc(C(=O)O)cc5n4CC4(n5ccnn5)CC4)cc3)n2)c(F)c1 [Example 461, 1-((1-(1H-1,2,3-triazol-1-yl)cyclopropyl)methyl)-2-(4-(6-((4-cyano-2-fluorobenzyl)oxy)pyridin-2-yl)benzyl)-1H-benzo[d]imidazole-6-carboxylic acid]
- pEC50 [1, 3]: 8.61
- Predicted Hepatic Clearance (Pred. Cl.) [2]: 7.17 mL/min/kg

SMILES: CCn1cncc1Cn1c(Cc2ccc(-c3ccc(F)c(OCc4ccc(Cl)cc4F)c3)cc2F)nc2ccc(C(=O)O)cc21 [Example 466, 2-((3′-((4-chloro-2-fluorobenzyl)oxy)-3,4′-difluoro-[1,1′-biphenyl]-4-yl)methyl)-1-((1-ethyl-1H-imidazol-5-yl)methyl)-1H-benzo[d]imidazole-6-carboxylic acid]
- pEC50 [1, 3]: 8.73
- Predicted Hepatic Clearance (Pred. Cl.) [2]: 3.83 mL/min/kg

SMILES: N#Cc1ccc(COc2cccc(-c3ccc(Cc4nc5c(F)cc(C(=O)O)cc5n4CC(O)CCO)c(F)c3)n2)c(F)c1 (stereo not shown) [Example 468, 2-[[4-[6-[(4-cyano-2-fluoro-phenyl)methoxy]-2-pyridyl]-2-fluoro-phenyl]methyl]-3-(2,4-dihydroxybutyl)-7-fluoro-benzimidazole-5-carboxylic acid]
- pEC50 [1, 3]: 7.57
- Predicted Hepatic Clearance (Pred. Cl.) [2]: 2.17 mL/min/kg

SMILES: COCCn1c(Cc2ccc(-c3cccc(OCc4cc(C(F)(F)F)ccc4OC)n3)cc2F)nc2ccc(C(=O)O)cc21 [Example 470, 2-(2-fluoro-4-(6-((2-methoxy-5-(trifluoromethyl)benzyl)oxy)pyridin-2-yl)benzyl)-1-(2-methoxyethyl)-1H-benzo[d]imidazole-6-carboxylic acid]
- pEC50 [1, 3]: 5.90
- Predicted Hepatic Clearance (Pred. Cl.) [2]: <1.83 mL/min/kg

SMILES: N#Cc1ccc(COc2cccc(-c3ccc(Cc4nc5c(F)cc(C(=O)O)cc5n4C[C@@H](O)CCO)cc3F)n2)c(F)c1 [Example 471, (S)-2-(4-(6-((4-cyano-2-fluorobenzyl)oxy)pyridin-2-yl)-3-fluorobenzyl)-1-(2,4-dihydroxybutyl)-4-fluoro-1H-benzo[d]imidazole-6-carboxylic]
- pEC50 [1, 3]: 7.86
- Predicted Hepatic Clearance (Pred. Cl.) [2]: 4 mL/min/kg

SMILES: COCCn1c(Cc2ccc(-c3ccc(F)c(OCc4ccc(Cl)cc4F)c3)cc2F)nc2ccc(C(=O)O)cc21 [Example 472, 2-((3′-((4-chloro-2-fluorobenzyl)oxy)-3,4′-difluoro-[1,1′-biphenyl]-4-yl)methyl)-1-(2-methoxyethyl)-1H-benzo[d]imidazole-6-carboxylic acid]
- pEC50 [1, 3]: 7.68
- Predicted Hepatic Clearance (Pred. Cl.) [2]: <1.83 mL/min/kg

SMILES: O=C(O)c1ccc2nc(Cc3ccc(-c4ccc(F)c(OCc5ccc(Cl)cc5F)c4)cc3F)n(CCO)c2c1 [Example 476, 2-[[4-[3-[(4-chloro-2-fluoro-phenyl)methoxy]-4-fluoro-phenyl]-2-fluoro-phenyl]methyl]-3-(2-hydroxyethyl)benzimidazole-5-carboxylic acid]
- pEC50 [1, 3]: 6.44
- Predicted Hepatic Clearance (Pred. Cl.) [2]: 2.17 mL/min/kg

SMILES: COCCn1c(Cc2ccc(-c3cccc(OCc4ccc(Cl)cc4F)n3)cc2F)nc2ccc(C(=O)O)cc21 [Example 478, 2-(4-(6-((4-chloro-2-fluorobenzyl)oxy)pyridin-2-yl)-2-fluorobenzyl)-1-(2-methoxyethyl)-1H-benzo[d]imidazole-6-carboxylic acid]
- pEC50 [1, 3]: 8.04
- Predicted Hepatic Clearance (Pred. Cl.) [2]: 3.17 mL/min/kg

SMILES: COCCn1c(Cc2ccc(-c3cccc(OCc4ccc(C(F)(F)F)cc4F)n3)cc2F)nc2ccc(C(=O)O)cc21 [Example 480, 2-[[2-fluoro-4-[6-[[2-fluoro-4-(trifluoromethyl)phenyl]methoxy]-2-pyridyl]phenyl]methyl]-3-(2-methoxyethyl)benzimidazole-5-carboxylic acid]
- pEC50 [1, 3]: 8.18
- Predicted Hepatic Clearance (Pred. Cl.) [2]: <1.83 mL/min/kg

SMILES: COCCn1c(Cc2ccc(-c3cccc(OCc4cc(F)c(Cl)cc4OC)n3)cc2F)nc2ccc(C(=O)O)cc21 [Example 481, 2-(4-(6-((4-chloro-5-fluoro-2-methoxybenzyl)oxy)pyridin-2-yl)-2-fluorobenzyl)-1-(2-methoxyethyl)-1H-benzo[d]imidazole-6-carboxylic acid]
- pEC50 [1, 3]: 8.54
- Predicted Hepatic Clearance (Pred. Cl.) [2]: <1.83 mL/min/kg

SMILES: CC(=O)N1CC[C@@H]1Cn1c(Cc2ccc(-c3cccc(OCc4ccc(C#N)cc4F)n3)cc2F)nc2ccc(C(=O)O)cc21 [Example 483, (R)-1-((1-acetylazetidin-2-yl)methyl)-2-(4-(6-((4-cyano-2-fluorobenzyl)oxy)pyridin-2-yl)-2-fluorobenzyl)-1H-benzo[d]imidazole-6-carboxylic acid]
- pEC50 [1]: 8.40
- Predicted Hepatic Clearance (Pred. Cl.) [2]: 2.5 mL/min/kg

SMILES: N#Cc1ccc(COc2cccc(-c3ccc(Cc4nc5ccc(C(=O)O)cc5n4Cc4ccon4)c(F)c3)n2)c(F)c1 [Example 484, 2-(4-(6-((4-cyano-2-fluorobenzyl)oxy)pyridin-2-yl)-2-fluorobenzyl)-1-(isoxazol-3-ylmethyl)-1H-benzo[d]imidazole-6-carboxylic acid]
- pEC50 [1, 3]: 8.97
- Predicted Hepatic Clearance (Pred. Cl.) [2]: 3.45 mL/min/kg

SMILES: CC(=O)NCCn1c(Cc2ccc(-c3cccc(OCc4ccc(C#N)cc4F)n3)cc2F)nc2ccc(C(=O)O)cc21 [Example 485, 1-(2-acetamidoethyl)-2-(4-(6-((4-cyano-2-fluorobenzyl)oxy)pyridin-2-yl)-2-fluorobenzyl)-1H-benzo[d]imidazole-6-carboxylic acid]
- pEC50 [1]: 6.99
- Predicted Hepatic Clearance (Pred. Cl.) [2]: 3.67 mL/min/kg

SMILES: N#Cc1ccc(COc2cccc(-c3cc(F)c(Cc4nc5ccc(C(=O)O)cc5n4Cc4ccon4)cc3F)n2)c(F)c1 [Example 486, 2-(4-(6-((4-cyano-2-fluorobenzyl)oxy)pyridin-2-yl)-2,5-difluorobenzyl)-1-(isoxazol-3-ylmethyl)-1H-benzo[d]imidazole-6-carboxylic acid]
- pEC50 [1, 3]: 8.98
- Predicted Hepatic Clearance (Pred. Cl.) [2]: 5 mL/min/kg

SMILES: COCCn1c(Cc2ccc(-c3cccc(OCc4ccc(C(F)(F)F)nc4F)n3)cc2F)nc2ccc(C(=O)O)cc21 [Example 487, 2-(2-fluoro-4-(6-((2-fluoro-6-(trifluoromethyl)pyridin-3-yl)methoxy)pyridin-2-yl)benzyl)-1-(2-methoxyethyl)-1H-benzo[d]imidazole-6-carboxylic acid]
- pEC50 [1, 3]: 7.00
- Predicted Hepatic Clearance (Pred. Cl.) [2]: 5.33 mL/min/kg

SMILES: CC(=O)N1CCC[C@H](Cn2c(Cc3ccc(-c4cccc(OCc5ccc(C#N)cc5F)n4)cc3F)nc3ccc(C(=O)O)cc32)C1 [Example 488, (R)-1-((1-acetylpiperidin-3-yl)methyl)-2-(4-(6-((4-cyano-2-fluorobenzyl)oxy)pyridin-2-yl)-2-fluorobenzyl)-1H-benzo[d]imidazole-6-carboxylic acid]
- pEC50 [1, 3]: 5.96
- Predicted Hepatic Clearance (Pred. Cl.) [2]: 10 mL/min/kg
